# Marks after values point to notes of the source that are not given here.
# System: tissue microarrays (TMAs) from cases with different proteinopathies
# Assay: Autoradiography and emulsion autoradiography on tissue microarrays
# Type: binding, human
# Protocol: Tissue micro-arrays (TMAs), prepared from paraffin-embedded tissue from human post-mortem tissue as described in [14], were first de-paraffinized with two 1 h and one overnight incubation in Neo-Clear Xylene Substitute (Sigma-Aldrich, St. Louis, MO, USA) at 37 °C and then […] in three short incubations at RT with decreasing concentrations of ethanol before autoradiography with [^3H]GMC-058 was performed as described above. For the saturation binding autoradiography, duplicate slides of each TMA set were incubated with 0.3 nM to 200 nM [^3H]GMC-058. Adjacent sections were co-incubated with 5 μM of unlabeled GMC-044 to calculate NSB. The quantification of total and non-specific binding was performed via delineation of the ROIs on the whole core, except for MSA, where the ROI followed the areas in which the binding of [^3H]GMC-058 corresponded to areas with α-syn inclusions. Those cores that had imperfections or were incomplete were not included in the analysis, or only the area of remaining tissue that adhered to the glass slide was delineated. For the cores from the substantia nigra of PD patient cases, the cores selected for analysis were those containing α-syn inclusion, but no A-β deposits of pTau tangles. The information was collected from IHC analysis of adjacent TMA slides.
# For high-resolution emulsion autoradiography, an autoradiography experiment with TMAs using 25 nM [^3H]GMC-058 was performed as described above. At the end of the 90 h exposure to the storage phosphor screen, slides were stored in a vacuum until dipping in a photoemulsion. In the dark, using a sodium lamp, Agar Scientific, AGP9284 type NTB emulsion was melted in a heated water bath and diluted (1:1) with ddH2O. The emulsion was poured into dipping chambers, and the slides were dipped and placed vertically to air-dry. When completely dry, the slides were placed in a light-tight slide box with desiccant and exposed at 4 C for 1–12 weeks. After exposure, the slides were developed in diluted Phenisol Developer for 2 min, rinsed in water, and fixed in hypam Fixer at 17 °C in a water bath. After rinsing in water, the slides were counterstained with Harris HTX, dehydrated in graded ethanol, cleared in Xylene, and mounted in Pertex. Images were taken using a 3D Histech P250 III scanner (3DHISTECH Kft. Hungary) at up to 15 focal layers with a distance of 0.2 μm.
smiles,measurement,setting,value
"[3H]c1cc(N2CCN(c3ccc(NC(=O)C(C)(C)C)cc3)CC2)ccc1OC [[^3H]GMC-058, N-(4-(4-(4-methoxy-[3-3H]phenyl)piperazin-1-yl)phenyl)pivalamide]",Saturation binding autoradiography,"0.3 nM to 200 nM, TMAs",specific binding did not reach saturation in any of the tissues
same,Specific binding versus displaceable binding in controls,"25 nM, PD, MSA, CAA, AD, PSP and CBD, p < 0.01",significantly higher than the displaceable binding in controls
same,Co-localization of binding (high-resolution autoradiography),"25 nM, TMAs","co-localized with α-syn inclusions in PD and MSA, with dense Aβ plaques in CAA and AD, and with p-tau inclusions in PSP and CBD"
same,"Specific binding, mean","25 nM, TMAs, AD",127 ** fmol/mg tissue equivalent
same,"Specific binding, mean","25 nM, TMAs, CAA",131 ** fmol/mg tissue equivalent
same,"Specific binding, mean","25 nM, TMAs, CBD",204 *** fmol/mg tissue equivalent
same,"Specific binding, mean","25 nM, TMAs, MSA",166 ** fmol/mg tissue equivalent
same,"Displaceable (off-target) binding, mean","25 nM, TMAs, NDE (non-dementia elderly controls)",70 fmol/mg tissue equivalent
same,"Specific binding, mean","25 nM, TMAs, PD",129 *** fmol/mg tissue equivalent
same,"Specific binding, mean","25 nM, TMAs, PSP",173 *** fmol/mg tissue equivalent
same,"Displaceable (off-target) binding, mean","25 nM, TMAs, liver control",57 fmol/mg tissue equivalent

# Source: PMC12190736, “Development and In Vitro Characterization of [^3H]GMC-058 as Radioligand for Imaging Parkinsonian-Related Proteinopathies” (Cells, 2025)
